From ChEMBL document CHEMBL3593218, “4,6-Substituted-1,3,5-triazin-2(1H)-ones as monocyclic catalytic inhibitors of human DNA topoisomerase IIα targeting the ATP binding site” (Bioorg Med Chem, 2015)
One block for each compound: values may come before it.

What was measured:
[1] = biological target: T1, DNA topoisomerase 2-alpha (Homo sapiens, UniProt P11388); assay: Inhibition of human DNA topoisomerase IIalpha using plasmid pNO1 as a substrate after 30 mins
[2] = biological target: T1, DNA topoisomerase 2-alpha; assay: Inhibition of human DNA topoisomerase IIalpha assessed as decatenation of kDNA at 500 uM after 90 mins by ethidium bromide staining; parameters: scale not given: the % may be the effect or the level left
[3] = biological target: T1, DNA topoisomerase 2-alpha; assay: Inhibition of human DNA topoisomerase IIalpha assessed as reduction in enzyme-catalyzed supercoiling of relaxed circular pBR322 DNA by measuring linear DNA level at 3.9 uM after 60 mins by agarose gel electrophoresis; parameters: scale not given: the % may be the effect or the level left
[4] = biological target: T1, DNA topoisomerase 2-alpha; assay: Inhibition of human DNA topoisomerase IIalpha ATPase activity assessed as residual ATP hydrolysis at 125 uM measured up to 60 mins
[5] = biological target: T1, DNA topoisomerase 2-alpha; assay: Inhibition of human DNA topoisomerase IIalpha ATPase activity assessed as residual ATP hydrolysis at 3.9 uM measured up to 60 mins
[6] = biological target: T1, DNA topoisomerase 2-alpha; assay: Inhibition of human DNA topoisomerase IIalpha assessed as decatenation of kDNA at 3.9 uM after 90 mins by ethidium bromide staining; parameters: scale not given: the % may be the effect or the level left
[7] = biological target: T1, DNA topoisomerase 2-alpha; assay: Inhibition of human DNA topoisomerase IIalpha assessed as reduction in enzyme-catalyzed supercoiling of relaxed circular pBR322 DNA by measuring linear DNA level at 125 uM after 60 mins by agarose gel electrophoresis; parameters: scale not given: the % may be the effect or the level left
[8] = biological target: T1, DNA topoisomerase 2-alpha; assay: Inhibition of human DNA topoisomerase IIalpha assessed as reduction in enzyme-catalyzed supercoiling of relaxed circular pBR322 DNA by measuring linear DNA level at 500 uM after 60 mins by agarose gel electrophoresis; parameters: scale not given: the % may be the effect or the level left
[9] = biological target: T1, DNA topoisomerase 2-alpha; assay: Inhibition of human DNA topoisomerase IIalpha assessed as reduction in enzyme-catalyzed supercoiling of relaxed circular pBR322 DNA by measuring linear DNA level at 50 uM after 60 mins by agarose gel electrophoresis; parameters: scale not given: the % may be the effect or the level left
[10] = biological target: T1, DNA topoisomerase 2-alpha; assay: Inhibition of human DNA topoisomerase IIalpha ATPase activity assessed as residual ATP hydrolysis at 500 uM measured up to 60 mins
[11] = biological target: T1, DNA topoisomerase 2-alpha; assay: Inhibition of human DNA topoisomerase IIalpha assessed as decatenation of kDNA at 125 uM after 90 mins by ethidium bromide staining; parameters: scale not given: the % may be the effect or the level left
[12] = biological target: T1, DNA topoisomerase 2-alpha; assay: Inhibition of human DNA topoisomerase IIalpha assessed as reduction in enzyme-catalyzed supercoiling of relaxed circular pBR322 DNA by measuring linear DNA level at 62.5 uM after 60 mins by agarose gel electrophoresis; parameters: scale not given: the % may be the effect or the level left
[13] = biological target: T1, DNA topoisomerase 2-alpha; assay: Inhibition of human DNA topoisomerase IIalpha ATPase activity assessed as residual ATP hydrolysis at 31.5 uM measured up to 60 mins
[14] = biological target: T1, DNA topoisomerase 2-alpha; assay: Inhibition of human DNA topoisomerase IIalpha assessed as reduction in enzyme-catalyzed supercoiling of relaxed circular pBR322 DNA by measuring linear DNA level at 31.5 uM after 60 mins by agarose gel electrophoresis; parameters: scale not given: the % may be the effect or the level left
[15] = biological target: T1, DNA topoisomerase 2-alpha; assay: Inhibition of human DNA topoisomerase IIalpha assessed as decatenation of kDNA at 31.5 uM after 90 mins by ethidium bromide staining; parameters: scale not given: the % may be the effect or the level left
[16] = biological target: T1, DNA topoisomerase 2-alpha; assay: Inhibition of human DNA topoisomerase IIalpha assessed as decatenation of kDNA after 90 mins by ethidium bromide staining
[17] = biological target: T1, DNA topoisomerase 2-alpha; assay: Inhibition of human DNA topoisomerase IIalpha assessed as reduction in enzyme-catalyzed supercoiling of relaxed circular pBR322 DNA by measuring linear DNA level at 125 uM after 60 mins by agarose gel electrophoresis in presence of 50 uM of etoposide; parameters: scale not given: the % may be the effect or the level left
[18] = Lipophilicity, log P of the compound; assay type: physicochemical; conditions: octanol/water
[19] = biological target: T1, DNA topoisomerase 2-alpha; assay: Inhibition of human DNA topoisomerase IIalpha assessed as reduction in enzyme-catalyzed supercoiling of relaxed circular pBR322 DNA by measuring linear DNA level at 31.5 uM after 60 mins by agarose gel electrophoresis in presence of 50 uM of etoposide; parameters: scale not given: the % may be the effect or the level left
[20] = biological target: T1, DNA topoisomerase 2-alpha; assay: Inhibition of human DNA topoisomerase IIalpha assessed as decatenation of kDNA at 62.5 uM after 90 mins by ethidium bromide staining; parameters: scale not given: the % may be the effect or the level left
[21] = biological target: T1, DNA topoisomerase 2-alpha; assay: Inhibition of human DNA topoisomerase IIalpha assessed as reduction in enzyme-catalyzed supercoiling of relaxed circular pBR322 DNA by measuring linear DNA level at 500 uM after 60 mins by agarose gel electrophoresis in presence of 50 uM of etoposide; parameters: scale not given: the % may be the effect or the level left
[22] = biological target: T1, DNA topoisomerase 2-alpha; assay: Inhibition of human DNA topoisomerase IIalpha assessed as reduction in enzyme-catalyzed supercoiling of relaxed circular pBR322 DNA by measuring linear DNA level at 3.9 uM after 60 mins by agarose gel electrophoresis in presence of 50 uM of etoposide; parameters: scale not given: the % may be the effect or the level left
[23] = biological target: T1, DNA topoisomerase 2-alpha; assay: Inhibition of human DNA topoisomerase IIalpha assessed as reduction in enzyme-catalyzed supercoiling of relaxed circular pBR322 DNA by measuring linear DNA level after 60 mins by agarose gel electrophoresis
[24] = biological target: T1, DNA topoisomerase 2-alpha; assay: Inhibition of human DNA topoisomerase IIalpha assessed as decatenation of kDNA at 15.625 uM after 90 mins by ethidium bromide staining; parameters: scale not given: the % may be the effect or the level left

T1 sequence (P11388 whole entry): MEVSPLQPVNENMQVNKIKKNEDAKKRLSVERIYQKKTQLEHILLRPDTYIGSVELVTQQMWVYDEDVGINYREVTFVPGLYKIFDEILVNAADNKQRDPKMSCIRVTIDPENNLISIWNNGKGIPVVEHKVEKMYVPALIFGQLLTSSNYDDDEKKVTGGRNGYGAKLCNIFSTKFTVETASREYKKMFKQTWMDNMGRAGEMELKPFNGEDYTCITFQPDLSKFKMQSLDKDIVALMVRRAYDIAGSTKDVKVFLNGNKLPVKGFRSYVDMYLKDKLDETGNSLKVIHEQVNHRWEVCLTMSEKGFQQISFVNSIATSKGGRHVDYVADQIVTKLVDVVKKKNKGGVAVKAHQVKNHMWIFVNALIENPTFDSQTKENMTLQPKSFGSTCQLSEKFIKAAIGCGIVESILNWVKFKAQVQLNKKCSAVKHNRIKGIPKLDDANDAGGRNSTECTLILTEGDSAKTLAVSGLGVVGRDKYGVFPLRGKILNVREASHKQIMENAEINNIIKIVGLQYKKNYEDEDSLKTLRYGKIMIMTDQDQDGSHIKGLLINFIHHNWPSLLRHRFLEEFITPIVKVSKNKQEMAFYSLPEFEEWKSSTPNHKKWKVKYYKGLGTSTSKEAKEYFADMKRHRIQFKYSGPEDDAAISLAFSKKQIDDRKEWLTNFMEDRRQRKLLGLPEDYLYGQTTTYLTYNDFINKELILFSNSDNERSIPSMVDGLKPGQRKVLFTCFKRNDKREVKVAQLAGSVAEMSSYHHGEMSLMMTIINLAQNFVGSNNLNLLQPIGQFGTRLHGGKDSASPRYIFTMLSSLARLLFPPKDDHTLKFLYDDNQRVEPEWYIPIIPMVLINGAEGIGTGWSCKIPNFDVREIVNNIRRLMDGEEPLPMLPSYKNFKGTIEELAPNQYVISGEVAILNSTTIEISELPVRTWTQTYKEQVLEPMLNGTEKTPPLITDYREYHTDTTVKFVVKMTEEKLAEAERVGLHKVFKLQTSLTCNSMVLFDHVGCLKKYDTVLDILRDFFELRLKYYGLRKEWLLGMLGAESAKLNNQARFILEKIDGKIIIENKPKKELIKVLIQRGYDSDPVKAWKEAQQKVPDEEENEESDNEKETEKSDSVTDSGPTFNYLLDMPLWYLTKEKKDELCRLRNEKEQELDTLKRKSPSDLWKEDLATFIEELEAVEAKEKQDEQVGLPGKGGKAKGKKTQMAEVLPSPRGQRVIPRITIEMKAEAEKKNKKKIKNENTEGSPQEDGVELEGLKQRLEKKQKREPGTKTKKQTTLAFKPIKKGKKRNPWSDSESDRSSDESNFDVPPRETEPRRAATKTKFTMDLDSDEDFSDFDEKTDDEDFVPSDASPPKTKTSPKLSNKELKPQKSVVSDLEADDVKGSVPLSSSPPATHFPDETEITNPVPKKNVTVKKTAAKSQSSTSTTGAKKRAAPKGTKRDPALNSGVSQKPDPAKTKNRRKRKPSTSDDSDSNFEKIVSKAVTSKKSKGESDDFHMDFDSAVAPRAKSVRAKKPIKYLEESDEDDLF

SMILES: COc1cc([C@@H]2c3cc4c(cc3[C@@H](O[C@@H]3O[C@@H]5CO[C@@H](C)O[C@H]5[C@H](O)[C@H]3O)[C@H]3COC(=O)[C@H]23)OCO4)cc(OC)c1O
- Activity [2]: 3.25%
- Activity [3]: 12.4%
- Activity [4]: 31.8%
- Activity [5]: 65.4%
- Activity [6]: 88.3%
- Activity [7]: 36.1%
- Activity [8]: 32.5%
- Activity [9]: 34.6%
- Activity [10]: 18.7%
- Activity [11]: 14.2%
- Activity [12]: 18.1%
- Activity [13]: 45.8%
- Activity [14]: 34.3%
- Activity [15]: 68.8%

SMILES: COc1ccccc1CSc1nc(SCc2ccccc2)nc(=O)[nH]1
- IC50 [1]: > 1000 µM

SMILES: CCCSc1nc(SCc2ccccc2)[nH]c(=O)n1
- IC50 [1]: > 1000 µM

SMILES: OCCc1ccccc1Nc1nc(Cl)nc(Cl)n1
- IC50 [1]: > 1000 µM

SMILES: O=c1nc(SCc2ccccc2)nc(SCC2CCCCC2)[nH]1
- IC50 [1]: > 1000 µM

SMILES: COc1nc(Nc2ccccc2C(=O)N[C@@H](C)C(=O)OCc2ccccc2)nc(N[C@@H](C)C(=O)OCc2ccccc2)n1
- IC50 [1]: > 1000 µM

SMILES: OCCc1ccccc1Nc1nc(Cl)nc(NCc2ccccc2)n1
- IC50 [1]: > 1000 µM

SMILES: COc1ccc(CCNc2nc(Cl)nc(Cl)n2)cc1OC
- IC50 [1]: > 1000 µM

SMILES: COc1ccc(CNc2nc(Cl)nc(N(C)CCO)n2)cc1
- IC50 [1]: > 1000 µM

SMILES: COc1nc(OC)nc(Sc2ccccc2C(=O)O)n1
- IC50 [1]: > 1000 µM

SMILES: CC(C)(C)c1ccccc1Nc1nc(Cl)nc(Cl)n1
- IC50 [1]: > 1000 µM

SMILES: COC(=O)c1ccccc1Oc1nc(OC)nc(OC)n1
- IC50 [1]: > 1000 µM

SMILES: Clc1nc(Cl)nc(Nc2ccccc2Br)n1
- IC50 [1]: > 1000 µM

SMILES: COC(=O)c1ccccc1Nc1nc(Cl)nc(Cl)n1
- IC50 [1]: > 1000 µM

SMILES: COc1nc(OC)nc(Sc2ccccc2C(=O)N[C@H](CCC(=O)OCc2ccccc2)C(=O)OCc2ccccc2)n1
- IC50 [1]: > 1000 µM

SMILES: CC(C)OC(=O)C(C)NC(=O)c1ccc(Nc2nc(Cl)nc(Cl)n2)cc1 (stereo unspecified)
- IC50 [1]: > 1000 µM

Next, values leading:

- IC50 [1]: > 1000 µM
SMILES: O=c1nc(SCc2ccccc2)nc(S)[nH]1

- IC50 [1]: 485 µM
SMILES: COc1cccc(CSc2nc(SCc3ccccc3)nc(=O)[nH]2)c1

- IC50 [1]: 219 µM
SMILES: O=c1nc(SCc2ccccc2)nc(SCc2ccc(Cl)cc2)[nH]1

- IC50 [1]: 486 µM
SMILES: N#Cc1ccc(CSc2nc(SCc3ccccc3)nc(=O)[nH]2)c(F)c1

- inhibition [16]: Dose-dependent effect
- Activity [2]: 0%
- Activity [17]: 9.2%
- Activity [3]: 4.4%
- logP [18]: 3.3
- Activity [19]: 33.5%
- Activity [6]: 87.3%
- Activity [7]: 3.5%
- Activity [20]: 6.05%
- Activity [21]: 5.3%
- Activity [8]: 2.5%
- Activity [11]: 0%
- Activity [22]: 34.3%
- inhibition [23]: Dose-dependent effect
- Activity [14]: 1.2%
- Activity [24]: 18.2%
- IC50 [1]: 54.6 µM
- Activity [15]: 33.9%
SMILES: O=c1nc(SCc2ccccc2)nc(SCc2cccc(Cl)c2)[nH]1

- IC50 [1]: 147 µM
SMILES: O=c1nc(SCc2ccccc2)nc(SCc2ccc(F)cc2)[nH]1

- IC50 [1]: 235 µM
SMILES: CCCCSc1nc(SCc2ccccc2)nc(=O)[nH]1

- IC50 [1]: 481 µM
SMILES: O=c1nc(SCc2ccccc2)nc(SCC2CC2)[nH]1

- logP [18]: 3.3
- IC50 [1]: 94.1 µM
SMILES: O=c1nc(SCc2ccccc2)nc(SCc2ccccc2Cl)[nH]1
